Patent US20260007634A1, “PHARMACEUTICAL COMPOSITIONS FOR THE TREATMENT OF ALLERGIC DISEASES” (KINKI UNIVERSITY, priority 2022, published 2026)

Assays:
Assay type in all cases: in vivo, mouse
IL-4 [1] = assay: Serum IL-4 ELISA, bronchial asthma mice; details: OVA bronchial asthma; serum day 28; oral 10 mg/kg (dexamethasone 2 mg/kg); control 282, vehicle 863
Description: (§1) A 0.2 mL dose of 50 μg ovalbumin (OVA) and 2 mg Alum mixture was administered to 6-week-old female Balb/c mice (Japan SLC Inc.) (day 0 of the example). Alum was used as an adjuvant. Seven days later and 14 days later, the Balb/c mice were immunized again with 0.2 mL injections of the above mixture. Starting on day 20, mice were orally treated with 10 mg/kg of norathyriol, 10 mg/kg of mangiferin 8a, 10 mg/kg of tofacitinib (JAK inhibitor), 2 mg/kg of dexamethasone (steroid) and 10 mg/kg of olopatadine (antihistamine) daily for 8 consecutive days. Starting on day 21, 400 μg OVA was administered intranasally, and cough was measured on day 27. Note that tofacitinib, dexamethasone, and olopatadine are currently in clinical use in allergic rhinitis and were used as control drugs in this example.
Serum was collected from day 28 mice in Examples 14, and IL-4 production was measured by enzyme-linked immunosorbent assay (ELISA). This assay was performed using a mouse IL-4 ELISA kit (R&D).

IL-5 [2] = assay: Serum IL-5 ELISA, allergic rhinitis mice; details: OVA allergic rhinitis; serum day 28; oral 10 mg/kg (dexamethasone 2 mg/kg); control 151, vehicle 1010
Description: as §1, with “nose-scratching behavior” for “cough”
Serum was collected from day 28 mice in Examples 6 and 7, and IL-5 production was measured by enzyme-linked immunosorbent assay (ELISA). This assay was performed using a mouse IL-5 ELISA kit (R&D).

BAFF = assay: Serum BAFF ELISA, food allergy mice; details: OVA food allergy; serum day 28; oral 10 mg/kg (dexamethasone 2 mg/kg); control 134, vehicle 845
Description: A 0.2 mL dose of 10 μg ovalbumin (OVA) and 1 mg Alum mixture was administered to 6-week-old female Balb/c mice (Japan SLC Inc.) (day 0 of the example). Alum was used as an adjuvant. Seven days later, the Balb/c mice were immunized again with a 0.2 mL injection of the above mixture. Starting on day 14, mice were orally treated with 10 mg/kg of norathyriol, 10 mg/kg of mangiferin 8a, 10 mg/kg of tofacitinib (JAK inhibitor), 2 mg/kg of dexamethasone (steroid) and 10 mg/kg of olopatadine (antihistamine) daily for 14 consecutive days. Starting on day 14, 10 mg OVA was administered orally every other day […], and the frequency of diarrhea was measured after the final administration on day 28. Note that tofacitinib, dexamethasone, and olopatadine are currently in clinical use in food allergy and were used as control drugs in this example.
Serum was collected from day 28 mice in Examples 21, and BAFF production was measured by enzyme-linked immunosorbent assay (ELISA). This assay was performed using a mouse BAFF ELISA kit (R&D).

OVA-IgE antibody = assay: Serum OVA-IgE antibody ELISA, bronchial asthma mice; details: serum day 28, oral 10 mg/kg (dexamethasone 2 mg/kg), control 2.4, vehicle 66
Description: as §1
Serum was collected from day 28 mice in Examples 14, and OVA-IgE antibody production was measured by enzyme-linked immunosorbent assay (ELISA). This assay was performed using a mouse OVA-IgE antibody ELISAkit (FUJIFILM Wako).

IL-17 [3] = assay: Serum IL-17 ELISA, allergic rhinitis mice; details: OVA allergic rhinitis; serum day 28; oral 10 mg/kg (dexamethasone 2 mg/kg); control 204, vehicle 945
Description: as §1, with “nose-scratching behavior” for “cough”
Serum was collected from day 28 mice in Examples 6 and 7, and IL-17 production was measured by enzyme-linked immunosorbent assay (ELISA). This assay was performed using a mouse IL-17 ELISA kit (R&D).

IL-4 [4] = assay: Serum IL-4 ELISA, allergic rhinitis mice; details: OVA allergic rhinitis; serum day 28; oral 10 mg/kg (dexamethasone 2 mg/kg); control 227, vehicle 872
Description: as §1, with “nose-scratching behavior” for “cough”
Serum was collected from day 28 mice in Examples 6 and 7, and IL-4 production was measured by enzyme-linked immunosorbent assay (ELISA). This assay was performed using a mouse IL-4 ELISA kit (R&D).

IL-17 [5] = assay: Serum IL-17 ELISA, cedar pollinosis mice; details: serum day 28, oral 10 mg/kg (dexamethasone 2 mg/kg), control 18, vehicle 397
Description: (§2) A 0.2 mL dose of 100 μg cedar pollen and 1 mg Alum mixture was administered to 6-week-old female Balb/c mice (Japan SLC Inc.) (day 0 of the example). Alum was used as an adjuvant. Seven days later and 14 days later, the Balb/c mice were immunized again with 0.2 mL injections of the above mixture. Starting on day 20, mice were orally treated with 10 mg/kg of norathyriol, 10 mg/kg of mangiferin 8a, 10 mg/kg of tofacitinib (JAK inhibitor), 2 mg/kg of dexamethasone (steroid) and 10 mg/kg of olopatadine (antihistamine) daily for 8 consecutive days. Starting on day 21, 500 μg cedar pollen was administered intranasally, and nose-scratching behavior was measured on day 27. Note that tofacitinib, dexamethasone, and olopatadine are currently in clinical use in cedar pollinosis and were used as control drugs in this example.
Serum was collected from day 28 mice in Examples 28 and 29, and IL-17 production was measured by enzyme-linked immunosorbent assay (ELISA). This assay was performed using a mouse IL-17 ELISA kit (R&D).

IL-5 [6] = assay: Serum IL-5 ELISA, cedar pollinosis mice; details: serum day 28, oral 10 mg/kg (dexamethasone 2 mg/kg), control 77, vehicle 708
Description: as §2
Serum was collected from day 28 mice in Examples 28 and 29, and IL-5 production was measured by enzyme-linked immunosorbent assay (ELISA). This assay was performed using a mouse IL-5 ELISA kit (R&D).

[7] = tested on: Balb/c mice with ovalbumin-induced bronchial asthma; assay: Cough, ovalbumin-induced bronchial asthma mice; details: OVA bronchial asthma; oral daily 8 days from day 20, 10 mg/kg (dexamethasone 2 mg/kg); measured day 27; vs vehicle group
Description: as §1
The group that was just immunized with OVA is called the subject group, the one that received norathyriol is called the norathyriol group, the one that received mangiferin 8a is called the mangiferin 8a group, the one that received tofacitinib is called the tofacitinib group, the one that received dexamethasone is called the dexamethasone group, and the one that received olopatadine is called the olopatadine group. Each group consisted of five animals.

## C[C@@H]1C[C@H]2[C@@H]3CCC4=CC(=O)C=C[C@]4(C)[C@@]3(F)[C@@H](O)C[C@]2(C)[C@@]1(O)C(=O)CO [dexamethasone]
IL-4 [1]
  amount of IL-4: 359 pg/mL
IL-5 [2]
  amount of IL-5: 314 pg/mL
BAFF
  amount of BAFF: 251 pg/mL
OVA-IgE antibody
  amount of OVA-IgE antibody: 18 U/mL
IL-17 [3]
  amount of IL-17: 227 pg/mL
IL-4 [4]
  amount of IL-4: 336 pg/mL
IL-17 [5]
  amount of IL-17: 49 pg/mL
IL-5 [6]
  amount of IL-5: 182 pg/mL

## O=c1c2cc(O)c(O)cc2oc2cc(O)cc(O)c12 [norathyriol, 1,3,6,7-tetrahydroxyxanthone]
IL-4 [1]
  amount of IL-4: 545 pg/mL
IL-5 [2]
  amount of IL-5: 633 pg/mL
BAFF
  amount of BAFF: 426 pg/mL
OVA-IgE antibody
  amount of OVA-IgE antibody: 28 U/mL
IL-17 [3]
  amount of IL-17: 583 pg/mL
[7]
  number of coughs: significantly decreased the number of coughs
IL-4 [4]
  amount of IL-4: 495 pg/mL
IL-17 [5]
  amount of IL-17: 195 pg/mL
IL-5 [6]
  amount of IL-5: 307 pg/mL

## CN(C)CC/C=C1/c2ccccc2COc2ccc(CC(=O)O)cc21 [olopatadine]
IL-4 [1]
  amount of IL-4: 781 pg/mL
IL-5 [2]
  amount of IL-5: 880 pg/mL
BAFF
  amount of BAFF: 715 pg/mL
OVA-IgE antibody
  amount of OVA-IgE antibody: 69 U/mL
IL-17 [3]
  amount of IL-17: 839 pg/mL
[7]
  number of coughs: significantly decreased the number of coughs
IL-4 [4]
  amount of IL-4: 717 pg/mL
IL-17 [5]
  amount of IL-17: 172 pg/mL
IL-5 [6]
  amount of IL-5: 438 pg/mL

## C[C@@H]1CCN(C(=O)CC#N)C[C@@H]1N(C)c1ncnc2[nH]ccc12 [tofacitinib]
IL-4 [1]
  amount of IL-4: 831 pg/mL
IL-5 [2]
  amount of IL-5: 839 pg/mL
BAFF
  amount of BAFF: 598 pg/mL
OVA-IgE antibody
  amount of OVA-IgE antibody: 50 U/mL
IL-17 [3]
  amount of IL-17: 892 pg/mL
[7]
  number of coughs: significantly decreased the number of coughs
IL-4 [4]
  amount of IL-4: 808 pg/mL
IL-17 [5]
  amount of IL-17: 244 pg/mL
IL-5 [6]
  amount of IL-5: 428 pg/mL
